According to ChEMBL document CHEMBL5465560, “Selectivity Literature for EUbOPEN Chemogenomic Library” (2024):

Experiments:
[1] = molecular target: T1, Phosphorylase b kinase gamma catalytic chain, liver/testis isoform (Homo sapiens) (UniProt P15735); assay: Selectivity interaction (KinomeScan (DiscoverX)) EUB0000229b PHKG2; details: at 10 µM
T1 sequence (whole entry): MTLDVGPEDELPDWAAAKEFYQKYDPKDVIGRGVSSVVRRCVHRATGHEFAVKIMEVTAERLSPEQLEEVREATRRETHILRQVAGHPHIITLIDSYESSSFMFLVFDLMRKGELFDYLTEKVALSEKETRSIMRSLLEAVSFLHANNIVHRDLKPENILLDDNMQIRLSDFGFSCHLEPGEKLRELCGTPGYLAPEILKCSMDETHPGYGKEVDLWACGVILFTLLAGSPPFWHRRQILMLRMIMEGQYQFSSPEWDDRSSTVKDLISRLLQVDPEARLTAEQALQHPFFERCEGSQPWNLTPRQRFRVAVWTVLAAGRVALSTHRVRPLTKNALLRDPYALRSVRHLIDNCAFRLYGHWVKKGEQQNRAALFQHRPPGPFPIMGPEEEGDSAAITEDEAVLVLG

[2] = molecular target: Bone morphogenetic protein receptor type-1B (Homo sapiens, UniProt O00238); assay: Selectivity interaction (KinomeScan (DiscoverX)) EUB0000229b BMPR1B; details: at 10 µM
[3] = molecular target: Receptor tyrosine-protein kinase erbB-3 (Homo sapiens) (UniProt P21860); assay: Selectivity interaction (KinomeScan (DiscoverX)) EUB0000229b ERBB3; details: at 10 µM
[4] = molecular target: Macrophage colony-stimulating factor 1 receptor (Homo sapiens) (UniProt P07333); assay: Selectivity interaction (KinomeScan (DiscoverX)) EUB0000229b CSF1R; details: at 10 µM
[5] = molecular target: Serine/threonine-protein kinase 24 (Homo sapiens) (UniProt Q9Y6E0); assay: Selectivity interaction (Upstate Kinase Profiler service (Millipore)) EUB0000056c STK24; details: at 1 µM
[6] = molecular target: Myosin light chain kinase 2, skeletal/cardiac muscle (Homo sapiens) (UniProt Q9H1R3); assay: Selectivity interaction (KinomeScan (DiscoverX)) EUB0000655a MYLK2; details: at 10 µM
[7] = molecular target: Ribosomal protein S6 kinase alpha-1 (Homo sapiens, UniProt Q15418); assay: Selectivity interaction (KinomeScan (DiscoverX)) EUB0000666a RPS6KA1; details: at 10 µM
Activated CDC42 kinase 1 = Activated CDC42 kinase 1 (Homo sapiens, UniProt Q07912); assay: Selectivity interaction (LanthaScreen Eu Kinase Binding Assay) EUB0001632a TNK2; details: at 10 µM
[8] = molecular target: T2, Serine/threonine-protein kinase DCLK2 (Homo sapiens) (UniProt Q8N568); assay: Selectivity interaction (KinomeScan (DiscoverX)) EUB0000607a DCLK2; details: at 10 µM
T2 sequence (whole entry): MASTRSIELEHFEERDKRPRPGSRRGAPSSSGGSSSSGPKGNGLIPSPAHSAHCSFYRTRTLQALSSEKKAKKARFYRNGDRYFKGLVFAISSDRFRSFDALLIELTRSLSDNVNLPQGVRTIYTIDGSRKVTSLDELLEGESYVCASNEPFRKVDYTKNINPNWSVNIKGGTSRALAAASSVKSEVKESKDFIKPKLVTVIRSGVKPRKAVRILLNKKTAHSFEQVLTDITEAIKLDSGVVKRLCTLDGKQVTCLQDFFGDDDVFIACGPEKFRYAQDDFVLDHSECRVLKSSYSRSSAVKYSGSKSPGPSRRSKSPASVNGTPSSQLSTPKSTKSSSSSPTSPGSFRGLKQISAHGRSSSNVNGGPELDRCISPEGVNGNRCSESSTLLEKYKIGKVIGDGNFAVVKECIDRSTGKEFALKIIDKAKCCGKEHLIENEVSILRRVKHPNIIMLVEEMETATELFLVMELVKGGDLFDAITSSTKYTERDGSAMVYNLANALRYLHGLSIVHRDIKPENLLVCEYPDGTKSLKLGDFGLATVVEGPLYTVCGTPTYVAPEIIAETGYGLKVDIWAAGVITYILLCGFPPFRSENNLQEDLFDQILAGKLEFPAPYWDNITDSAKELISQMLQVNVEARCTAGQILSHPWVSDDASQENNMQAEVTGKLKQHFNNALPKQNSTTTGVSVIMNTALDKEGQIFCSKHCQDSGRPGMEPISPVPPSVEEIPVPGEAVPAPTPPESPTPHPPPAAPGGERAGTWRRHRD

[9] = molecular target: Serine/threonine-protein kinase 32C (Homo sapiens) (UniProt Q86UX6); assay: Selectivity interaction (KinomeScan (DiscoverX)) EUB0001049a STK32C; details: at 1 µM
[10] = molecular target: Death-associated protein kinase 3 (Homo sapiens) (UniProt O43293); details: at 10 µM
[11] = molecular target: MAP kinase-interacting serine/threonine-protein kinase 1 (Homo sapiens) (UniProt Q9BUB5); assay: Selectivity interaction (KinomeScan (DiscoverX)) EUB0000045b MKNK1
[12] = molecular target: T3, Phosphatidylinositol 5-phosphate 4-kinase type-2 alpha (Homo sapiens) (UniProt P48426); assay: Selectivity interaction (Kinase panel (literature)) EUB0001199aCl PIP4K2A; details: at 1 µM
T3 sequence (whole entry): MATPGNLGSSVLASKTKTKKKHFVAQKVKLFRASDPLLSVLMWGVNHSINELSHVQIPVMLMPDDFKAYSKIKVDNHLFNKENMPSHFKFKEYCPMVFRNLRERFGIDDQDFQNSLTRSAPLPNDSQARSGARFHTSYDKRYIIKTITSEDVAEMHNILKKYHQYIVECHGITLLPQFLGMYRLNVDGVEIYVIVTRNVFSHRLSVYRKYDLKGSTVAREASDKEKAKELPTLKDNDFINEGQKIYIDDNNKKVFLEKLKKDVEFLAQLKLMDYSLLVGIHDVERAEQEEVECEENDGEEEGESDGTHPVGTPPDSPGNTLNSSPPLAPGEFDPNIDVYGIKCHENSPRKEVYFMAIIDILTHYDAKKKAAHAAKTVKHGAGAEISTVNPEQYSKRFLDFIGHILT

[13] = molecular target: Vascular endothelial growth factor receptor 3 (Homo sapiens, UniProt P35916); assay: Selectivity interaction (Ambit KINOMEscan and KiNATiv profiling in Jurkat cells) EUB0000090b FLT4; format: cell-based; details: at 1 µM

Sequence of MAP kinase-interacting serine/threonine-protein kinase 1 (Homo sapiens) (Q9BUB5 whole entry, looked up): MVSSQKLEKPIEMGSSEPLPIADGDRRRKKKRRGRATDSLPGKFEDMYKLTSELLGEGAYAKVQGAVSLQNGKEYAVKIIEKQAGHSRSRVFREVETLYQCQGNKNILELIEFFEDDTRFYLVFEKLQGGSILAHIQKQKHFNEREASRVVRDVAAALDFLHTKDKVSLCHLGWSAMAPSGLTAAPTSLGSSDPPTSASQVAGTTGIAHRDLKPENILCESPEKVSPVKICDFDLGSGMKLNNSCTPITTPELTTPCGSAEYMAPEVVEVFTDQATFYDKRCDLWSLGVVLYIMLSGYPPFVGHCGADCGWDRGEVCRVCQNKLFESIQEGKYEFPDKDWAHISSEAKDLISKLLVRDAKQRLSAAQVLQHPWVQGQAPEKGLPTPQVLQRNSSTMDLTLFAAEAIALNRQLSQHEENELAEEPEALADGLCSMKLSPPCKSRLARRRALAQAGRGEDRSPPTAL
Sequence of Ribosomal protein S6 kinase alpha-1 (Q15418 whole entry): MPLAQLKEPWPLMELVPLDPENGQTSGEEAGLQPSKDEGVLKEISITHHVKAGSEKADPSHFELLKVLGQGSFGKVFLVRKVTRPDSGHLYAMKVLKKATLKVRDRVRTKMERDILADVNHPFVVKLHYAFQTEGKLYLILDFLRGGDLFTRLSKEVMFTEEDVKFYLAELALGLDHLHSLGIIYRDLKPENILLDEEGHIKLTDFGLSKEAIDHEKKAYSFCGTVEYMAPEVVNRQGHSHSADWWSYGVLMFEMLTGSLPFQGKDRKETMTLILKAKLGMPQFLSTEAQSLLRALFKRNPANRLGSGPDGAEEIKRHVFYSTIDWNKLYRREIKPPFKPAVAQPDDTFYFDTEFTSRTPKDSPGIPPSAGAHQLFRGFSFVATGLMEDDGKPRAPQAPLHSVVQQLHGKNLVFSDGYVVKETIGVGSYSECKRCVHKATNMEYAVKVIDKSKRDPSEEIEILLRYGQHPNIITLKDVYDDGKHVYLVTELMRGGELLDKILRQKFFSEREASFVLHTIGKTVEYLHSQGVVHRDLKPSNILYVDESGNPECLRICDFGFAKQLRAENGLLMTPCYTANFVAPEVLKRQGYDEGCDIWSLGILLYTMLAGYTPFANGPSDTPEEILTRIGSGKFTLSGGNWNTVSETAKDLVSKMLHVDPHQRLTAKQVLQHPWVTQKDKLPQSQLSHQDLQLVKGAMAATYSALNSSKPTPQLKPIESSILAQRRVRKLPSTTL
Sequence of Bone morphogenetic protein receptor type-1B (O00238 whole entry): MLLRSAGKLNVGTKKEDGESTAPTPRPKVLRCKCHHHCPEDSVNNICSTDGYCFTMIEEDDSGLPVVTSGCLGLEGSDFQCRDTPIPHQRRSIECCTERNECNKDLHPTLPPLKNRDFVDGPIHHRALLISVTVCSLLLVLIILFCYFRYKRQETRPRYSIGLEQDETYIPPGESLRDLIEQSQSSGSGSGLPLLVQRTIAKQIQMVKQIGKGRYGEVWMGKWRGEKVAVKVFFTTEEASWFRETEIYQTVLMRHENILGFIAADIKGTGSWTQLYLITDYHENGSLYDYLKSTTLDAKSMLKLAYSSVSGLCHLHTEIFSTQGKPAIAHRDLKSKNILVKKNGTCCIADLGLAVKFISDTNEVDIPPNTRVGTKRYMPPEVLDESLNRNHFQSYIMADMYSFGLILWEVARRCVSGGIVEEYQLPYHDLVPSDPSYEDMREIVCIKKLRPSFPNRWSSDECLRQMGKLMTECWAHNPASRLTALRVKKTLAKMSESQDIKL
Sequence of Receptor tyrosine-protein kinase erbB-3 (Homo sapiens) (P21860 whole entry): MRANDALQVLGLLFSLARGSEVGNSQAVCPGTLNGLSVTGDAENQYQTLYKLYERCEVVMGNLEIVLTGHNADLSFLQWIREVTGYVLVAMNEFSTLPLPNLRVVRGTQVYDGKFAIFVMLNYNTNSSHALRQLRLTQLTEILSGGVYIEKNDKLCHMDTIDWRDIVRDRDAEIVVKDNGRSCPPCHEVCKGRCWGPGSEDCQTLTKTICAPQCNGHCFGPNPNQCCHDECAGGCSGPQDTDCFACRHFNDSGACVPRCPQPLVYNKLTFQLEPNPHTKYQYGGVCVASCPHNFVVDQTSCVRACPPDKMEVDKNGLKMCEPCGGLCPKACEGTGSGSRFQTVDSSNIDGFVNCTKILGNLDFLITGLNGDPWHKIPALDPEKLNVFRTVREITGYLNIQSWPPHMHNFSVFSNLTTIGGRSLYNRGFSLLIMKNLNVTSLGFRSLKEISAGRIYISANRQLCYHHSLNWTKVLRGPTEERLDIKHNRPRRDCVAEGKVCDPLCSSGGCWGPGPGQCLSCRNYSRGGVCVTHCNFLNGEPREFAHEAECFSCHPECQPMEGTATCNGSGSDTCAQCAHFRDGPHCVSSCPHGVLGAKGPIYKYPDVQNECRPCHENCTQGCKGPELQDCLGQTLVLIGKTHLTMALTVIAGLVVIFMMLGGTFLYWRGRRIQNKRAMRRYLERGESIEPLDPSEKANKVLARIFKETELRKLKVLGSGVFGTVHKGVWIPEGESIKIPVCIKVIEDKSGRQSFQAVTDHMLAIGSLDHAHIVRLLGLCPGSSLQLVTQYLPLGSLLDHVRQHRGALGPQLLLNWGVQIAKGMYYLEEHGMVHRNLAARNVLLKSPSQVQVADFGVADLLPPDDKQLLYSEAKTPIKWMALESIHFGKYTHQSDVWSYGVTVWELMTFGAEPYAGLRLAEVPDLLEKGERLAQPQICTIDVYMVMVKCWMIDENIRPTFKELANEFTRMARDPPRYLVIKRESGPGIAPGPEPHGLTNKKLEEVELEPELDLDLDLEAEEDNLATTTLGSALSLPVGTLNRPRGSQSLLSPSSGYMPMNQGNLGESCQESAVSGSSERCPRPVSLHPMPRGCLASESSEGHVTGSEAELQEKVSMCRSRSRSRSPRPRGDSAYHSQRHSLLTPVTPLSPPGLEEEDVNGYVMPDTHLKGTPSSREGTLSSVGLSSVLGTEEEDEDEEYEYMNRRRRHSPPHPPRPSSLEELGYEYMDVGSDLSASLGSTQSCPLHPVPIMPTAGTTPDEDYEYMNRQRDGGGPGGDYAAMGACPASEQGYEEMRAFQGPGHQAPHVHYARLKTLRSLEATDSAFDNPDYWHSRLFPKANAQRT
Sequence of Death-associated protein kinase 3 (Homo sapiens) (O43293 whole entry, looked up): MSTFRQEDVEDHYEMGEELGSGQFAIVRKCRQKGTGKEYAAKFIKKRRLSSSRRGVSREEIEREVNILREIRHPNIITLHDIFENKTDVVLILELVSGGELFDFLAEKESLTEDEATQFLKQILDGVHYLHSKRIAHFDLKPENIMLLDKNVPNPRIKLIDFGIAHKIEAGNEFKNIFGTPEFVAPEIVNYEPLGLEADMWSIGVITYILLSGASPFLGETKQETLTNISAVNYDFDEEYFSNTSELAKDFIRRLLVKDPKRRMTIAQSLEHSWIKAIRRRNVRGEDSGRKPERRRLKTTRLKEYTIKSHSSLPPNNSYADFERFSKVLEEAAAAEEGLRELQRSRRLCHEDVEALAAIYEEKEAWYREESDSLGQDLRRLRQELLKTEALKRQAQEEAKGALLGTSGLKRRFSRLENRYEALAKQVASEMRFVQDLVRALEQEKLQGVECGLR
Sequence of Activated CDC42 kinase 1 (Q07912 whole entry, looked up): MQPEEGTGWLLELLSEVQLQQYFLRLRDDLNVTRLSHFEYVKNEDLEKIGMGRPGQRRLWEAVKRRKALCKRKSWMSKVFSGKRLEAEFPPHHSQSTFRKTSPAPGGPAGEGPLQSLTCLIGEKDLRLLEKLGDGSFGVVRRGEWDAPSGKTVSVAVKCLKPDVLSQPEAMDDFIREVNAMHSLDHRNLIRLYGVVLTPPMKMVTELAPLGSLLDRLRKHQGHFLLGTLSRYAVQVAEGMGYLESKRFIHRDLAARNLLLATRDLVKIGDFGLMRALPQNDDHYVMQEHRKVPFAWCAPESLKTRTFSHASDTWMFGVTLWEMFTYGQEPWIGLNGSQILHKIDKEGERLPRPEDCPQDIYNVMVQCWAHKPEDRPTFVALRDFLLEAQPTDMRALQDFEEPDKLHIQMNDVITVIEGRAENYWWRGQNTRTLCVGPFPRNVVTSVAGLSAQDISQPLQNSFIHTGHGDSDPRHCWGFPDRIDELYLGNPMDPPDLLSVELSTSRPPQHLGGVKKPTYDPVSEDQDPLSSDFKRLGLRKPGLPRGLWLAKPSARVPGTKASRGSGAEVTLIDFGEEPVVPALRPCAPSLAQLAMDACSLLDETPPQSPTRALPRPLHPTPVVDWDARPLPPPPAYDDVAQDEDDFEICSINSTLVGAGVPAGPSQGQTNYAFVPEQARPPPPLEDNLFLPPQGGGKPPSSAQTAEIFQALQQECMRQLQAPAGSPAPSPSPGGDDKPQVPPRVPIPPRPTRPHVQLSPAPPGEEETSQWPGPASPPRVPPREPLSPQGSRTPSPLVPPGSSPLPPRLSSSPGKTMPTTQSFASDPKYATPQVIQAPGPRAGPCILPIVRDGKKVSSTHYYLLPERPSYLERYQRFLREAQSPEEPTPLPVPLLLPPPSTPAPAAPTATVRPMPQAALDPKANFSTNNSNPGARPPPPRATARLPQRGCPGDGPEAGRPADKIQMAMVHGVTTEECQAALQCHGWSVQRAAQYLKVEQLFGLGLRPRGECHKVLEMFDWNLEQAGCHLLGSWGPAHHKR
Sequence of Serine/threonine-protein kinase 24 (Homo sapiens) (Q9Y6E0 whole entry, looked up): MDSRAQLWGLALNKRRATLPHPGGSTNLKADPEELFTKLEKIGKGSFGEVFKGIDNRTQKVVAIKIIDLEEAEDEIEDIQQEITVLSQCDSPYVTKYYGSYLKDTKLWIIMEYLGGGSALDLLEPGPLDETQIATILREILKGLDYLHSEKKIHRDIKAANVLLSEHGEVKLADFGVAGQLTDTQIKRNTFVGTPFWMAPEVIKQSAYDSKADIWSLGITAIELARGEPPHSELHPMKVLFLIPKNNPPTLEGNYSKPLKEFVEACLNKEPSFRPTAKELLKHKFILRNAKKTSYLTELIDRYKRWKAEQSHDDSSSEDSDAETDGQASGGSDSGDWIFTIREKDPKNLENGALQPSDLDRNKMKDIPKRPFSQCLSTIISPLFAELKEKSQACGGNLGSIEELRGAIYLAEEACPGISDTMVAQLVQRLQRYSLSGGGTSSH

## COc1cc(N(C)c2ccnc3ccc(C(F)(F)F)cc23)cc(OC)c1OC
[1]
  % binding: 85%
[2]
  % binding: 73%
[3]
  % binding: 93%
[4]
  % binding: 96%

## Cc1ccc(-c2ccc3c(ccc4sc5c(c43)NC[C@@H](C)NC5=O)n2)cn1
[5]
  % of inhibition: 33%

## CN(C)CCOc1ccc(-c2nc(-c3ccncc3)c(-c3ccc4c(c3)CC/C4=N\O)[nH]2)cc1
[6]
  % of control: 100%

## O=C(NOC[C@H](O)CO)c1ccc(F)c(F)c1Nc1ccc(I)cc1F
[7]
  % of control: 100%

## Cn1cc(-n2cnc3c(NCc4nc5cc(Cl)c(Cl)cc5[nH]4)nc(N4CCOCC4)nc32)cn1
Activated CDC42 kinase 1
  % of inhibition: -5.62%

## CNC(=O)Nc1ccc(-c2nc(N3CC4CCC(C3)O4)c3cnn(C4CCC5(CC4)OCCO5)c3n2)cc1
[8]
  % of control: 97%

## COc1cc(Nc2nc(C)cc(-c3cnn4nc(OC)ccc34)n2)cc(C(F)(F)F)c1
[9]
  % of control: 87%

## COCC(=O)NC/C=C/c1ccc2ncnc(Nc3ccc(Oc4ccc(C)nc4)c(C)c3)c2c1 [CP-724714]
[10]
  % of control: 96%

## C=CC(=O)Nc1cc(-n2c(=O)ccc3cnc4ccc(-c5ccc(NS(C)(=O)=O)cc5)cc4c32)ccc1C
[11]; at 1 µM
  % of control: 100%
[11]; at 10 µM
  % of control: 100%

## CN1Cc2nccc(-c3cn(C)nc3-c3ccc(F)cc3)c2C1=O
[12]
  % of inhibition: -6%

## CN(C)C/C=C/C(=O)Nc1ccc(C(=O)N2CCCC(Nc3ncc(Cl)c(-c4c[nH]c5ccccc45)n3)C2)cc1 (stereo not given)
[13]
  % of control: 70%
